In patent US8513252B2, “Pyrazole derivatives and their use as positive allosteric modulators of metabotropic glutamate receptors” (Addex Pharma S.A., priority 2009, dated 2013):

Experiments:
[1] = biological target: T1, recombinant human mGluR4a receptors (Homo sapiens, UniProt Q14833); test: mGluR4 assay on HEK-expressing human mGluR4: fluorescent cell based Ca2+ mobilization assay (FLIPR); conditions: HEK-293 cells expressing hmGluR4; potentiation of EC25 glutamate; mean of at least three independent experiments in duplicate; read-out: Ca^2+ Flux (mean EC50)
T1 construct: expressed in transfected cells
T1 sequence (Q14833 33-912): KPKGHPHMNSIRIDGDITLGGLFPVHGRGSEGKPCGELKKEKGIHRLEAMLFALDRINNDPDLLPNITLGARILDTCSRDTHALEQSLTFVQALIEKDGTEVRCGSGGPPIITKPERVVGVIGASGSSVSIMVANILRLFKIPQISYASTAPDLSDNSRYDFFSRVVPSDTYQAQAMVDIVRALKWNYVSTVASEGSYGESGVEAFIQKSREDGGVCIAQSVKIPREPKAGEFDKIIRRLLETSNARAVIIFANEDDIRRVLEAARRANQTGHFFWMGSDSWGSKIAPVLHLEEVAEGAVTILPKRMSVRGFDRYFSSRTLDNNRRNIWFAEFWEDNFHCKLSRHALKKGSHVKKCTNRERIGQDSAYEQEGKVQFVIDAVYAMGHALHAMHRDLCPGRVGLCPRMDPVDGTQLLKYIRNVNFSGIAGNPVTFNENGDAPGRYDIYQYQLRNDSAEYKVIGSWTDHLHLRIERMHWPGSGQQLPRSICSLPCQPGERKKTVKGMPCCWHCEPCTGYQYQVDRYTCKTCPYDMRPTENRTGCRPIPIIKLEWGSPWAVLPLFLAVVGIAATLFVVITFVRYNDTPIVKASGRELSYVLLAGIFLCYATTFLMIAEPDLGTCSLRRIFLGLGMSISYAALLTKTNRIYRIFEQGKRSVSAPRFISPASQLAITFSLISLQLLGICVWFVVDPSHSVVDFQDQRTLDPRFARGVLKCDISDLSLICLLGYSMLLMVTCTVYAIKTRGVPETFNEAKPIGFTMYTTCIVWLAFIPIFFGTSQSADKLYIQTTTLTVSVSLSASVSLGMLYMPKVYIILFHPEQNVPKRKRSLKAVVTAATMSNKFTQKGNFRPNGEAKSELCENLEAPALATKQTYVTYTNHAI
Source text: mGluR4 Assay on HEK-Expressing Human mGluR4
The compounds of the present invention are positive allosteric modulators of mGluR4 receptor. Their activity was examined on recombinant human mGluR4a receptors by detecting changes in intracellular Ca^2+ concentration, using the fluorescent Ca^2+-sensitive dye Fluo4-(AM) and a Fluorometric Imaging Plate Reader (FLIPR, Molecular Devices, Sunnyvale, Calif.).
The cDNA encoding the human metabotropic glutamate receptor (hmGluR4), (accession number NM_000841.1, NCBI Nucleotide database browser), was subcloned into an expression vector containing also the hygromycin resistance gene. In parallel, the cDNA encoding a G protein allowing redirection of the activation signal to intracellular calcium flux was subcloned into a different expression vector containing also the puromycin resistance gene. Transfection of both these vectors into HEK293 cells with PolyFect reagent (Qiagen) according to supplier's protocol, and hygromycin and puromycin treatment allowed selection of antibiotic resistant cells which had integrated stably one or more copies of the plasmids. Positive cellular clones expressing hmGluR4 were identified in a functional assay measuring changes in calcium fluxes in response to glutamate or selective known mGluR4 orthosteric agonists and antagonists.
HEK-293 cells expressing hmGluR4 were maintained in media containing DMEM, dialyzed Fetal Calf Serum (10%), Glutamax™ (2 mM), Penicillin (100 units/mL), Streptomycin (100 μg/mL), Geneticin (100 μg/mL) and Hygromycin-B (40 μg/mL) and puromycin (1 μg/mL) at 37° C./5% CO2.
Human mGluR4 HEK-293 cells were plated out 24 hours prior to FLIPR^384 assay in black-walled, clear-bottomed, poly-L-ornithine-coated 384-well plates at a density of 25,000 cells/well in a glutamine/glutamate free DMEM medium containing foetal bovine serum (10%), penicillin (100 units/mL) and streptomycin (100 μg/mL) at 37° C./5% CO2.
On the day of the assay, the medium was aspirated and the cells were loaded with a 3 μM solution of Fluo-4-AM (LuBioScience, Lucerne, Switzerland) in 0.03% pluronic acid. After 1 hour at 37° C./5% CO2, the non incorporated dye was removed by washing cell plate with the assay buffer and the cells were left in the dark at room temperature for […] before testing. All assays were performed in a pH 7.4 buffered-solution containing 20 mM HEPES, 143 mM NaCl, 6 mM KCl, 1 mM MgSO4, 1 mM CaCl2, 0.125 mM sulfapyrazone and 0.1% glucose.
After 10 s of basal fluorescence recording, various concentrations of the compounds of the invention were added to the cells. Changes in fluorescence levels were first monitored for 180 s in order to detect any agonist activity of the compounds. Then the cells were stimulated by an EC25 glutamate concentration for an additional 110 s in order to measure enhancing activities of the compounds of the invention. EC25 glutamate concentration is the concentration giving 25% of the maximal glutamate response.
The concentration-response curves of representative compounds of the present invention were generated using the Prism GraphPad software (Graph Pad Inc, San Diego, USA). The curves were fitted to a four-parameter logistic equation: (Y=Bottom+(Top-Bottom)/(1+10^((Log EC50−X)*Hill Slope) allowing the determination of EC50 values.
The Table 4 below represents the mean EC50 obtained from at least three independent experiments of selected molecules performed in duplicate.

| melting point [°C] | EC50 [1] [nM] | SMILES |
| --- | --- | --- |
| 160 | – | Cc1n[nH]cc1-c1csc(Oc2ncccc2F)n1 [Compound 1-8, 2-(3-Fluoropyridin-2-yloxy)-4-(3-methyl-1H-pyrazol-4-yl)thiazole] |
| 177 | – | Cc1[nH]ncc1-c1csc(Oc2ncccn2)n1 [Compound 1-4, 4-(5-Methyl-1H-pyrazol-4-yl)-2-(pyrimidin-2-yloxy)thiazole] |
| 151 to 152 | – | c1ccc(Oc2nc(-c3cn[nH]c3)cs2)nc1 [Compound 1-6, 4-(1H-Pyrazol-4-yl)-2-(pyridin-2-yloxy)thiazole] |
| 176 to 178 | < 100 | Cc1cccc(Oc2nc(-c3cn[nH]c3)cs2)n1 [Compound 1-10, 2-(6-Methylpyridin-2-yloxy)-4-(1H-pyrazol-4-yl)thiazole] |

Second part, the compound before the results:

| SMILES | melting point [°C] | EC50 [1] [nM] |
| --- | --- | --- |
| Fc1ccc(Oc2nc(-c3cn[nH]c3)cs2)nc1 [Compound 1-18, 2-(5-Fluoropyridin-2-yloxy)-4-(1H-pyrazol-4-yl)thiazole] | – | 100 to 1000 |
| Cc1cccc(Oc2nc(-c3c[nH]nc3C)cs2)n1 [Compound 1-11, 4-(3-Methyl-1H-pyrazol-4-yl)-2-(6-methylpyridin-2-yloxy)thiazole] | 138 to 139 | – |
| FC(F)(F)c1n[nH]cc1-c1nsc(Oc2ccccn2)n1 [Compound 1-2, 5-(Pyridin-2-yloxy)-3-(3-(trifluoromethyl)-1H-pyrazol-4-yl)-1,2,4-thiadiazole] | 245 to 247 | < 100 |
| Fc1cccc(F)c1Oc1nc(-c2cn[nH]c2)cs1 [Compound 1-5, 2-(2,6-Difluorophenoxy)-4-(1H-pyrazol-4-yl)thiazole] | 131 to 135 | 100 to 1000 |
| CC(=O)c1n[nH]cc1-c1csc(Oc2cccc(C)n2)n1 [Compound 1-9, 1-(4-(2-(6-Methylpyridin-2-yloxy)thiazol-4-yl)-1H-pyrazol-3-yl)ethanone] | 194 to 195 | – |
| Cc1n[nH]cc1-c1nsc(Oc2ccccc2)n1 [Compound 1-1, 3-(3-Methyl-1H-pyrazol-4-yl)-5-phenoxy-1,2,4-thiadiazole] | 165 to 166 | 1000 to 10000 |
| N#Cc1sc(Oc2cccc(Cl)n2)nc1-c1cn[nH]c1 [Compound 1-21, 2-(6-Chloropyridin-2-yloxy)-4-(1H-pyrazol-4-yl)thiazole-5-carbonitrile] | – | < 100 |
| Cc1n[nH]cc1-c1csc(Oc2cccc(Cl)n2)n1 [Compound 1-7, 2-(6-Chloropyridin-2-yloxy)-4-(3-methyl-1H-pyrazol-4-yl)thiazole] | 158 to 161 | < 100 |
